Cytotoxicity data for 93 compounds are collected here from ChEMBL document CHEMBL3507680, “University of Dundee, Gates Library screen for HepG2 cell viability”.

A short description of this data set: Human HepG2 cell viability assay in 384 well format. Type of data set: toxicity, cell-based. Further details: dose 125 nL, time 70.5 hour; cytotoxicity at 70.5 h: concentration not given beside the values. Conditions: HepG2 cells, read-out: Inhibition.
For `CCC1=NN2C(=N)/C(=C\c3cccn3-c3ccc(Br)cc3)C(=O)N=C2S1`, the cytotoxicity at 70.5 h stood at 3.19%.

As for `O=C([C@@H]1Cc2[nH]cnc2CN1CC1CC1)N1CCCC1`, the cytotoxicity at 70.5 h stood at 9.33%.

Consider `COCC(=O)Nc1ccc(-c2noc([C@@H]3CCCN3C)n2)cn1`, for which the cytotoxicity at 70.5 h was -7.79%.

`CS(=O)(=O)c1ccc(CN2C[C@@H]3OCC(=O)N(CC(N)=O)[C@@H]3C2)cc1`: the cytotoxicity at 70.5 h is -4.08%.

Consider `CC(=O)NC[C@H]1OC[C@@H](NC2CCC(F)(F)CC2)[C@@H]1O`, for which the cytotoxicity at 70.5 h is -4.95%.

Take `O=S(=O)(NC[C@H]1OC[C@@H](NCc2cccs2)[C@@H]1O)c1ccccc1`: the cytotoxicity at 70.5 h is -10.7%.

In the case of `CC(C)NC(=O)N[C@H]1C[C@@H](c2nc(-c3ccncc3)no2)N(C)C1`, the cytotoxicity at 70.5 h was -5.9%.

For the compound `CC(C)(C)CC(=O)NC[C@H]1OC[C@@H](NC2CCC(F)(F)CC2)[C@@H]1O`, the cytotoxicity at 70.5 h is -5.07%.

Regarding `Cc1ccc(S(=O)(=O)NC[C@H]2OC[C@@H](NCc3ccncc3)[C@@H]2O)cc1`, the cytotoxicity at 70.5 h is -8.05%.

Take `COc1ccc(-c2cn3c(n2)CO[C@@H](CNCc2nccn2C)C3)cc1`: the cytotoxicity at 70.5 h is 6.44%.

With `F[C@@H]1CN(Cc2nccs2)C[C@@H]1OCc1nc2cnccc2[nH]1`, the cytotoxicity at 70.5 h was -3.2%.

On to `Cc1cccc(CNC[C@H]2COCc3nc4cccnc4n32)n1`, for which the cytotoxicity at 70.5 h is -9.5%.

Regarding `COc1ccc2c(c1)nc1n2[C@@H](CNCc2cnn(C)c2)COC1`, the cytotoxicity at 70.5 h is -8.24%.

In the case of `CN(C)CCN(C)C[C@H]1CN2CC[C@H]1C[C@@H]2CNC(=O)Nc1ccsc1`, the cytotoxicity at 70.5 h was -2.68%.

Take `Cc1ccc(CNC2(Cc3cc(-c4ccccn4)on3)COC2)o1`: the cytotoxicity at 70.5 h is -1.75%.

As to `O=C(c1ccno1)N1C[C@@H](F)[C@@H](OCc2nc3ccccc3o2)C1`, the cytotoxicity at 70.5 h came to 0.816%.

In the case of `Cc1cccc(-c2noc([C@@H]3C[C@@H](O)CN3C3CCOCC3)n2)c1`, the cytotoxicity at 70.5 h is -3.79%.

For the compound `CN1C(=O)CO[C@H](c2ccc(NC(=O)c3cccnc3)cc2)[C@H]1CO`, the cytotoxicity at 70.5 h was -2.53%.

Take `CO[C@H]1COCCN(Cc2c[nH]c3ccccc23)C1`: the cytotoxicity at 70.5 h was -4%.

For the compound `O=C(C1CC1)N1CC[C@H](c2nnc(-c3ccccc3F)o2)C1`, the cytotoxicity at 70.5 h was -7.55%.

Take `O=C(NCCC1=CCCCC1)c1[nH]nc2c1CCCC2`: the cytotoxicity at 70.5 h is 11.2%.

`CN(C)CCCNCC1CCOC(C)(C)C1` (stereo not drawn): the cytotoxicity at 70.5 h was -3.4%.

With `CCCNC(=O)COc1cccc(-c2nc(C(C)C)no2)c1`, the cytotoxicity at 70.5 h worked out at 0.882%.

Consider `CC(C)c1noc(-c2cccc(OCC(N)=O)c2)n1`, for which the cytotoxicity at 70.5 h was -5.07%.

As to `COCCCNc1c(-c2ccccc2)c(=O)c1=O`, the cytotoxicity at 70.5 h is -8.63%.

As to `CCCN(CCC)CCNc1c(-c2ccccc2)c(=O)c1=O`, the cytotoxicity at 70.5 h came to 1.06%.

In the case of `COCCNc1c(-c2ccc(Cl)cc2)c(=O)c1=O`, the cytotoxicity at 70.5 h was -7.26%.

Turning to `Cc1nnc(NC(=O)CSCc2cc(=O)n3ccccc3n2)s1`, the cytotoxicity at 70.5 h was -4.73%.

Turning to `Cc1ccn2c(=O)cc(CSCC(=O)Nc3nnc(C(C)C)s3)nc2c1`, the cytotoxicity at 70.5 h was found to be 23%.

`CCC(C)NC(=O)CCn1ccc(C)n1` (stereo not drawn): the cytotoxicity at 70.5 h was -6.22%.

Consider `Cc1ccn(CCC(=O)NCCc2ccco2)n1`, for which the cytotoxicity at 70.5 h was -3.53%.

Regarding `Cc1nc(N2CCN(C)CC2)ncc1C(=O)N1CCCCCC1`, the cytotoxicity at 70.5 h is -1.12%.

Turning to `CCN(CC)S(=O)(=O)c1ccc2c(c1)N(Cc1ccccn1)C(=O)CS2`, the cytotoxicity at 70.5 h was -4.62%.

On to `CCN(CC)S(=O)(=O)c1ccc2c(c1)N(Cc1cccnc1)C(=O)CS2`, for which the cytotoxicity at 70.5 h is -4.53%.

`CCOC(=O)Cc1csc(NC(=O)c2ccc(=O)[nH]n2)n1`: the cytotoxicity at 70.5 h was -5.3%.

For `Cc1ccc(NC(=O)c2ccc(=O)n(CC(=O)Nc3nccs3)n2)cc1`, the cytotoxicity at 70.5 h came to 23.1%.

For `CCOCc1nc(N2CCOCC2)sc1C(=O)NCc1ccco1`, the cytotoxicity at 70.5 h is -6.85%.

In the case of `CCOCCCNC(=O)C1(C)CCC(=O)N1Cc1ccccc1F` (stereo not drawn), the cytotoxicity at 70.5 h is 0.95%.

For `O=C1N(Cc2ccncc2)CCC12CCCNC2` (stereo not drawn), the cytotoxicity at 70.5 h is -4.76%.

Take `CC(C)NC(=O)N1CC[C@@H]2[C@@H]1CC(=O)N2Cc1cccnc1`: the cytotoxicity at 70.5 h was -13.6%.

Turning to `O=C(C1CCOC1)N1CCC2(CCNCC2)C1` (stereo not drawn), the cytotoxicity at 70.5 h came out at 27.5%.

As to `CCOC(=O)CN1CCC2(CCCN(CCOc3ccccc3)C2)C1` (stereo not drawn), the cytotoxicity at 70.5 h is -16%.

For the compound `Cc1ccccc1C(=O)N1CCC2(CCC(C(=O)NCC3CC3)O2)CC1` (stereo not drawn), the cytotoxicity at 70.5 h is -18.9%.

For `CN1C(=O)CCCC12CCCN(C(=O)c1cc(F)cc(F)c1)C2` (stereo not drawn), the cytotoxicity at 70.5 h is -9.55%.

`CN1C(=O)CCCC12CCCN(C(=O)c1ccoc1)C2` (stereo not drawn): the cytotoxicity at 70.5 h is -10.6%.

For the compound `O=C(NCC1CC1)C1CCC2(CCN(C(=O)c3cnccn3)CC2)O1` (stereo not drawn), the cytotoxicity at 70.5 h stood at 9.2%.

On to `CC(C)N1[C@@H](C(=O)NCC2CC2)C[C@@H]2CN(Cc3ccco3)C[C@@H]21`, for which the cytotoxicity at 70.5 h was -13.6%.

As to `CC[C@H]1N(Cc2ccc(OC)cc2)CCC[C@]12CCC(=O)N2C`, the cytotoxicity at 70.5 h is -13%.

As to `O=C(NCC1CC1)C1CCC2(CCN(C(=O)c3ccco3)CC2)O1` (stereo not drawn), the cytotoxicity at 70.5 h is -15.5%.

With `CC[C@H]1N(Cc2ccco2)CCC[C@]12CCC(=O)N2C`, the cytotoxicity at 70.5 h was -15.5%.

Consider `C[C@@H]1CN(C(=O)c2ccccc2F)C[C@]12CCN(CCN(C)C)C2=O`, for which the cytotoxicity at 70.5 h is -13.1%.

As to `Cc1cc(C)cc(C(=O)N2CCCC3(CCCC(=O)N3C)C2)c1` (stereo not drawn), the cytotoxicity at 70.5 h is -14.4%.

Regarding `O=C(CC1CC1)N1CCCC2(CCC(=O)N2CC2CC2)CC1` (stereo not drawn), the cytotoxicity at 70.5 h was -8.2%.

Take `Cc1noc(C)c1CN1CCCC2(CCN(C(=O)N3CCOCC3)C2)C1` (stereo not drawn): the cytotoxicity at 70.5 h was -8.84%.

Take `Cc1noc(C)c1CN1CCCC2(CCN(C(=O)C3CC3)C2)C1` (stereo not drawn): the cytotoxicity at 70.5 h was -11.8%.

`Cc1nc(CN2CCC3(CC2)NC(=O)CC3c2cccnc2)cs1` (stereo not drawn): the cytotoxicity at 70.5 h is -8.17%.

Consider `CNC(=O)[C@@H](c1ccccc1)N1CCC[C@H]1C(=O)NCc1cccnc1`, for which the cytotoxicity at 70.5 h was -2.18%.

With `CC(=O)N1[C@H](CN(C)C)C[C@@H]2CN(C(=O)c3occc3C)CC[C@@H]21`, the cytotoxicity at 70.5 h is -3.81%.

Turning to `O=C(NC1CC1)C1=CC2(CCN(CC3CC3)CC2)c2ccccc21`, the cytotoxicity at 70.5 h was -4.67%.

As for `CCO[C@H]1CO[C@@]2(CCN(Cc3ccc4c(c3)OCO4)C2)C1`, the cytotoxicity at 70.5 h was -9.21%.

Take `CC(=O)N1CCC2(CC1)C(=O)N(CC1CCN(C)CC1)c1ccccc12`: the cytotoxicity at 70.5 h is -8.7%.

On to `CC(=O)N1[C@H](CN(C)C)C[C@@H]2CN(C(=O)c3ccno3)CC[C@@H]21`, for which the cytotoxicity at 70.5 h is -9.81%.

Turning to `CNC(=O)CN1CCCC12CCN(C(=O)c1ccoc1)CC2`, the cytotoxicity at 70.5 h is -11.1%.

`O=C1C[C@H]2[C@@H](CCN2C(=O)Cc2cccs2)N1Cc1ccncc1`: the cytotoxicity at 70.5 h turned out to be 27.8%.

On to `CCN1CCOCC2(CCCN(C(=O)c3ccccc3F)C2)C1` (stereo not drawn), for which the cytotoxicity at 70.5 h is 8.58%.

Regarding `CCCC(=O)N1C[C@@H]2CCN(c3cnccn3)C[C@@H]2C1`, the cytotoxicity at 70.5 h was 8.32%.

Regarding `O=C1N(CC2CC2)CCC12CCN(Cc1ccoc1)CC2`, the cytotoxicity at 70.5 h was -8.87%.

With `Cc1oncc1C(=O)N1CCC2(CC1)CC(N1CCOCC1)C2`, the cytotoxicity at 70.5 h was -11.3%.

For `CC(=O)N1[C@H](CN(C)C)C[C@@H]2CN(C(=O)Cc3cccs3)CC[C@@H]21`, the cytotoxicity at 70.5 h is -21.3%.

Regarding `O=C(c1cccnc1)N1CCCC2(COCCN(c3ccccc3)C2)C1` (stereo not drawn), the cytotoxicity at 70.5 h is -16%.

Regarding `O=C(CC1CC1)N1C[C@@H]2CCN(c3cccnc3)C[C@@H]2C1`, the cytotoxicity at 70.5 h is -11.6%.

With `CC[C@@H]1N(Cc2nccs2)CCC[C@]12CCC(=O)N2C`, the cytotoxicity at 70.5 h turned out to be 9.06%.

On to `CCN1CCOCC2(CCCN(C(=O)c3ccncc3F)C2)C1` (stereo not drawn), for which the cytotoxicity at 70.5 h was -3.01%.

As to `O=C(C1CCCCC1)N1C[C@@H]2CCN(c3cnccn3)C[C@@H]2C1`, the cytotoxicity at 70.5 h was -6.4%.

Turning to `CCN1CCOCC2(CCCN(C(=O)c3conc3C)C2)C1` (stereo not drawn), the cytotoxicity at 70.5 h was -1.18%.

Take `C[C@@H]1CN(S(C)(=O)=O)C[C@]12CCN(Cc1cccnc1)C2=O`: the cytotoxicity at 70.5 h stood at 14.9%.

Take `COCCN1CCC2(CCN(c3ncccn3)CC2)C1=O`: the cytotoxicity at 70.5 h worked out at 16.9%.

Consider `Cc1ccc(CN2CCC3(CC2)NC(=O)CC3c2ccccc2)s1` (stereo not drawn), for which the cytotoxicity at 70.5 h was -6.55%.

Turning to `CC(=O)N1CCN(Cc2ccc(C)o2)CC2(CC(=O)N(C)C2)C1` (stereo not drawn), the cytotoxicity at 70.5 h was -4.13%.

On to `O=C(C1CCC1)N1CCC2(CCCN2CC2CC2)CC1`, for which the cytotoxicity at 70.5 h was -0.744%.

Take `CN1[C@@H](C(=O)NCC2CC2)C[C@@H]2CN(Cc3ccsc3)C[C@@H]21`: the cytotoxicity at 70.5 h was determined as 11.3%.

For `COc1ccc(CN2CC[C@H]3[C@H]2CC(=O)N3Cc2cccc(C)n2)cc1`, the cytotoxicity at 70.5 h is -7.27%.

Consider `Cc1noc(C)c1CN1C[C@@H]2C[C@H](C(=O)NCC3CC3)N(C)[C@@H]2C1`, for which the cytotoxicity at 70.5 h was -11.9%.

In the case of `Cc1cccc(CN2C(=O)C[C@H]3[C@@H]2CCN3Cc2ccco2)n1`, the cytotoxicity at 70.5 h is -11.7%.

For `CC[C@@H]1N(Cc2cccnc2)CCC[C@]12CCC(=O)N2C`, the cytotoxicity at 70.5 h is -12.1%.

With `CC(C)NC(=O)CC1COC2(CCN(Cc3cccnc3)CC2)C1` (stereo not drawn), the cytotoxicity at 70.5 h was -12.2%.

Turning to `CC[C@@H]1N(Cc2ccncc2)CCC[C@]12CCC(=O)N2C`, the cytotoxicity at 70.5 h is -20.1%.

`Cc1cccc(CN2C(=O)C[C@H]3[C@@H]2CCN3Cc2ccc(F)cc2)n1`: the cytotoxicity at 70.5 h is -2.72%.

For the compound `CN(C)CCN1CCCC12CCN(C(=O)c1ccoc1)CC2`, the cytotoxicity at 70.5 h is -9.15%.

`Cc1nc(CN2C[C@H]3C[C@H](C(=O)NCC4CC4)N(C)[C@H]3C2)cs1`: the cytotoxicity at 70.5 h was determined as 9.54%.

Consider `COc1ncccc1CN1C[C@H]2C[C@@H](C(=O)NCC3CC3)N(C)[C@H]2C1`, for which the cytotoxicity at 70.5 h is -12.9%.

As for `C[C@@H]1CN(Cc2cccnc2)C[C@]12CCN(CCN1CCCC1)C2=O`, the cytotoxicity at 70.5 h is -4.97%.

Regarding `COc1cc(O)cc2c1C(=O)CC(c1ccc(O)cc1)O2` (stereo not drawn), the cytotoxicity at 70.5 h is -14%.
